Like-named read-outs stand apart in the source and are kept apart here.
Tests used:
[1] = Stability of analytes in rat plasma under storage conditions; type: physicochemical; conditions: n = 6; for Stability RE, 3 freeze-thaw cycles / Stability RE, 30 days at −20 °C: rat plasma; for Stability RE, processed samples' stability: room temperature 24 h
Procedure: The stabilities of analytes in plasma were assessed by analyzing the QC samples at three concentration levels under the following storage conditions: after three freeze (−20 °C)-thaw (room temperature) cycles; stored at −20 °C for 30 days, and comparing the results with those of freshly prepared QC samples. Stabilities of the processed samples at room temperature for 24 h were also assessed.

[2] = Dose modified systemic exposure (AUC0→∞/D, Cmax/D)
Procedure: Because the alkaloids content in ZJ and FZJ were no longer linear with the proportion of CR and EF after extraction process, AUC0→∞/D (ratio of AUC0→∞ and dose) and Cmax/D (ratio of Cmax and dose) were calculated to estimate the dose modified systemic exposure levels of the 12 alkaloids (Table 3). […] Physicochemical properties of these alkaloids had been calculated in silico to predict their human colon adenocarcinoma cell (Caco-2) permeability according to the three-property based rule (3PRule). Polar surface area (PSA), logarithm of the n-octanol/water distribution coefficient (LogD), molecular weight (MW), hydrogen bond donors (HBD), hydrogen bond acceptors (HBA), number of free rotatable bonds (NRB) and molar solubility (S) of the alkaloids were retrieved from SciFinder® (American Chemical Society).

[3] = PK study of the 12 alkaloids in rat plasma after oral administration of ZJ and FZJ extract (LC–MS/MS); type: in vivo; conditions: for AUC(0-t) / AUC(0-inf) / Cmax / MRT last / MRT inf / half-life / Tmax / Tsec (time of the secondary peak in C–T curve) / Csec (drug concentration of the secondary peak in C–T curve): rat plasma; for AUC(0-t) / AUC(0-inf) / Cmax / MRT last / MRT inf / half-life / Csec (drug concentration of the secondary peak in C–T curve): mean ± SD, n = 6; for AUC(0-t): read-out: AUC0→t; for AUC(0-inf): read-out: AUC0→∞; for Cmax: read-out: Cmax; for MRT last: read-out: MRT0→t (converted); for MRT inf: read-out: MRT0→∞ (converted); for half-life: read-out: t1/2; for Tmax: read-out: Tmax (converted)
Procedure: The time schedule included 15 time-points and six rats were sampled at each time-point. All the rats were orally administered with ZJ extract (suspended in water) at a dose of 3.38 g/kg body weight (dosages of the 12 alkaloids were shown in Table S4), equivalent to crude drug dose of 12 g/kg body weight. Blood samples were collected from the suborbital vein of the rats at 10, 20, 30, 60, 90, 120, 180, 240, 300, 330, 360, 480, 720, 1440, 2160 min after administration, and centrifuged immediately at 5000 rpm for 10 min. The plasma samples were stored at −20 °C until analysis.
Similarly, the time schedule of other rats included 15 time-points and six rats were orally administered with FZJ extract at a dose of 3.76 g/kg body weight (also equivalent to crude drug dose of 12 g/kg body weight, Table S4). Blood samples were collected and treated as mentioned above in the PK study of ZJ extract.
PK parameters of the 12 alkaloids including AUC0→t, AUC0→∞, mean retention time (MRT0→t, MRT0→∞), and elimination half-life (t1/2) were calculated with non-compartmental method by DAS 2.0 software (Mathematical Pharmacology Professional Committee of China, Shanghai, China). Maximum plasma drug concentration (Cmax) and time to reach the maximum plasma drug concentration (Tmax) were observed directly from the detected C–T data. The results were expressed as arithmetic mean ± standard deviation (SD).

[4] = Two-compartment model fitting of C–T curves (DAS 2.0); type: in vivo, rat
From the text: Double peaks in C–T curves were observed repeatedly in the PK study of ZJ and related TCM prescriptions, but explanations to the phenomenon were still ambiguous. Generally, possible reasons for the double peak phenomenon could be summarized as follows: (a) enterohepatic circulation; […] (c) irregular pattern of gastric emptying. […] Moreover, Tmax of the alkaloids after administration of ZJ extract were deferred from that of FZJ administration. […] It probably play a major role in the double peak phenomenon, since the GI motility can affect the drug absorption.

Stability RE, 3 freeze-thaw cycles ([1]; high QC concentration)	Stability RE, 30 days at −20 °C ([1]; high QC concentration)	Stability RE, 3 freeze-thaw cycles ([1]; low QC concentration)	Stability RE, 30 days at −20 °C ([1]; low QC concentration)	Stability RE, 3 freeze-thaw cycles ([1]; medium QC concentration)	Stability RE, 30 days at −20 °C ([1]; medium QC concentration)	Stability RE, processed samples' stability ([1]; high QC concentration)	Stability RE, processed samples' stability ([1]; low QC concentration)	Stability RE, processed samples' stability ([1]; medium QC concentration)	AUC0→∞/D (ratio of AUC0→∞ and dose) ([2]; oral ZJ extract)	Cmax/D (ratio of Cmax and dose) ([2]; oral ZJ extract)	AUC(0-t) ([3]; 3.38 g/kg, oral ZJ extract)	AUC(0-inf) ([3]; 3.38 g/kg, oral ZJ extract)	Cmax ([3]; 3.38 g/kg, oral ZJ extract)	MRT last ([3]; 3.38 g/kg, oral ZJ extract)	MRT inf ([3]; 3.38 g/kg, oral ZJ extract)	half-life ([3]; 3.38 g/kg, oral ZJ extract)	Tmax ([3]; 3.38 g/kg, oral ZJ extract)	Tsec (time of the secondary peak in C–T curve) ([3]; oral ZJ extract)	Csec (drug concentration of the secondary peak in C–T curve) ([3]; oral ZJ extract)	Structure (SMILES)	further results
−8.93%	−2.71%	−14.18%	−13.41%	0.37%	0.36%	−7.73%	−7.14%	9.35%	97.25	13.92	14.3 ± 2.32 ng·h/mL	16.6 ± 3.22 ng·h/mL	2.38 ± 1.14 ng/mL	7.51 h	12.3 h	9.88 ± 4.57 h	1.5 h	300 min	1.85 ± 0.99 ng/mL	COc1cc2c(cc1OC)-c1cc3ccc4c(c3c(=O)n1CC2)OCO4 [8-oxoepiberberine]	plasma concentrations at most time points ([3]; oral FZJ extract): below the LLOQ
−9.82%	−12.1%	−14.7%	−8.89%	11.57%	−2.75%	−12.23%	−8.14%	−0.19%	1687.47	357.11	133 ± 18.5 ng·h/mL	140 ± 17.8 ng·h/mL	29.6 ± 15.2 ng/mL	8.82 h	11 h	10.7 ± 2.82 h	1.5 h	300 min	16.29 ± 8.38 ng/mL	O=C1NCCc2cc3c(cc21)OCO3 [noroxyhydrastinine]	AUC0→∞/D (ratio of AUC0→∞ and dose) ([2]; oral FZJ extract): 268.50; Cmax/D (ratio of Cmax and dose) ([2]; oral FZJ extract): 158.50; AIC (Akaike's information criterion method), two-compartment model fitting ([4]; oral FZJ extract): 16.505 ± 12.486; r^2 (correlation coefficient method), two-compartment model fitting ([4]; oral FZJ extract): 0.802 ± 0.128; AIC (Akaike's information criterion method), two-compartment model fitting ([4]; oral ZJ extract): 118.137 ± 17.623; r^2 (correlation coefficient method), two-compartment model fitting ([4]; oral ZJ extract): 0.313 ± 0.350; AUC(0-t) ([3]; 3.76 g/kg, oral FZJ extract): 4.95 ± 0.65 ng·h/mL; AUC(0-inf) ([3]; 3.76 g/kg, oral FZJ extract): 5.37 ± 0.73 ng·h/mL; Cmax ([3]; 3.76 g/kg, oral FZJ extract): 3.17 ± 1 ng/mL; MRT last ([3]; 3.76 g/kg, oral FZJ extract): 3.03 h; MRT inf ([3]; 3.76 g/kg, oral FZJ extract): 5.25 h; half-life ([3]; 3.76 g/kg, oral FZJ extract): 4.06 ± 2.93 h; Tmax ([3]; 3.76 g/kg, oral FZJ extract): 0.5 h
7.91%	6.12%	−19.16%	8.28%	3.44%	−14.67%	3.83%	14.05%	−14.47%	35.17	14.42	55.6 ± 12.4 ng·h/mL	59 ± 13.3 ng·h/mL	24.2 ± 12.9 ng/mL	4.19 h	6.52 h	8.99 ± 6.39 h	1 h	240 min	7.36 ± 4.89 ng/mL	CCCCC=CCCCCCCCc1cc(=O)c2ccccc2n1C [evocarpine]	AUC0→∞/D (ratio of AUC0→∞ and dose) ([2]; oral FZJ extract): 13.16; Cmax/D (ratio of Cmax and dose) ([2]; oral FZJ extract): 2.74; AIC (Akaike's information criterion method), two-compartment model fitting ([4]; oral FZJ extract): 27.61 ± 10.527; r^2 (correlation coefficient method), two-compartment model fitting ([4]; oral FZJ extract): 0.740 ± 0.167; AIC (Akaike's information criterion method), two-compartment model fitting ([4]; oral ZJ extract): 78.232 ± 11.393; r^2 (correlation coefficient method), two-compartment model fitting ([4]; oral ZJ extract): 0.734 ± 0.201; AUC(0-t) ([3]; 3.76 g/kg, oral FZJ extract): 17.8 ± 3.99 ng·h/mL; AUC(0-inf) ([3]; 3.76 g/kg, oral FZJ extract): 19.6 ± 4.79 ng·h/mL; Cmax ([3]; 3.76 g/kg, oral FZJ extract): 4.07 ± 0.44 ng/mL; MRT last ([3]; 3.76 g/kg, oral FZJ extract): 7.04 h; MRT inf ([3]; 3.76 g/kg, oral FZJ extract): 9.3 h; half-life ([3]; 3.76 g/kg, oral FZJ extract): 6.91 ± 1 h; Tmax ([3]; 3.76 g/kg, oral FZJ extract): 0.5 h

Reference: PMC6155683, “Pharmacokinetics Studies of 12 Alkaloids in Rat Plasma after Oral Administration of Zuojin and Fan-Zuojin Formulas” (Molecules : A Journal of Synthetic Chemistry and Natural …, 2017)
